Earlier results on one compound are cited in patent US6949259B1, “Solid preparations for oral use” (Kyorin Pharmaceutical Co., Ltd., priority 1999, dated 2005).

Each structure is given as a SMILES string.

For data set [1] the following is noted: Nomura M. et al, Bioorg. Med. Chem. Lett., 9 (1999), 533-538.
For data set [2] the following is noted: Nomura M. et al, Bioorg. Med. Chem. Lett., 9 (1999), 533-538. The source holds these as a separate data set.

Take `COc1ccc(CC2SC(=O)NC2=O)cc1C(=O)NCc1ccc(C(F)(F)F)cc1` (racemic) [KRP-297, (±)-5-[(2,4-dioxothiazolidine-5-yl)methyl]-2-methoxy-N-[[4-(trifluoromethyl)phenyl]methyl]-benzamide]: the blood glucose-lowering action entry in data set [1] is recorded as “potent blood glucose-lowering action”. The lipid-lowering action entry in data set [2] was “lipid-lowering action”.
